The text below walks through data of article PMC6934184, “Selective DNA-PKcs inhibition extends the therapeutic index of localized radiotherapy and chemotherapy” (The Journal of Clinical Investigation, 2019).

This assay concerns the target T1, CDK2/cyclin O (Homo sapiens, UniProt P24941).
T1 construct: purchased Thermo Fisher Scientific (Life Technologies) SelectScreen
Briefly: SelectScreen LanthaScreen. The class given is binding. Conditions: 1 µM. In outline: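 SelectScreen broad panel; activity (Z'LYTE, Adapta) plus binding formats. ATP: Km app for CSF1R Z'LYTE; 10 for CAMK1 Adapta. Readout = % per kinase.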

On to `CN(C(=O)CN1CCOCC1)c1ccc2sc3c(-c4cccc5c(=O)cc(N6CC7CCC(C6)O7)oc45)cccc3c2c1` [NU5455], for which the “% displacement” value was found to be 0.9%.
